Publication PMC6368365, “Didehydro-Cortistatin A Inhibits HIV-1 by Specifically Binding to the Unstructured Basic Region of Tat” (mBio, 2019)

Experiments:
Pep B-TAR interaction = molecular target: T1, Pep B-TAR interaction (Human immunodeficiency virus type 1 group M subtype B, UniProt P20879); assay: EMSA of Tat's basic peptide (Pep B) with TAR; assay type: biochemical, HIV-1; conditions: Tat basic peptide residues 45 to 59
T1 construct: Pep B is a peptide encompassing the basic domain of HIV Tat (^45ISYGRKKRRQRRRAP^59)
From the text: FIG 6 dCA binding to Tat disrupts Tat-TAR interaction. (A) EMSA of full-length Tat with TAR in the presence of dCA. Raltegravir (Ralt.) and deleted bulge TAR (ΔTAR) were used as negative controls. Data are representative of n = 3 independent experiments. (B) EMSA of Tat’s basic domain with TAR in the presence of increasing concentrations of dCA to Tat’s basic peptide. Pep B is a peptide encompassing the basic domain of HIV Tat (^45ISYGRKKRRQRRRAP^59). Pep C (^69LSKQPASQPRGDPTG^83) and unlabeled or cold TAR (TARc) were used as negative controls. Neomycin, which binds to Tat and TAR, was used as a positive control. Ratios of compounds (or TARc) concentrations to peptide are shown. Data are representative of n = 3 independent experiments. […] Shown are ITC results from binding of dCA (left) or Tat peptide (right) to TAR at 25°C. […] For the lower plots, results were converted to molar heats and plotted against the molar ratio of dCA or peptide to RNA. Data are representative of n = 2 independent experiments. (D) Tat-TAR interaction blocked by dCA in HeLa-CD4-LTR-Luc cells in vivo. Cells transfected with Tat or Tat Mut (arginine residues mutated to alanine in Tat’s basic domain) were incubated with DMSO or the indicated compounds (25 nM). Forty-eight hours later, cells were either lysed to determine the luciferase activity or cross-linked for ChIP assays. Luciferase activity was determined relative to protein concentration (Bradford assay) (Fig. S9A). Western blotting was performed to verify the amount of Tat under each condition (Fig. S9B). ChIP of Tat was followed by qRT-PCR of TAR DNA. The results are presented as percentage of input. The mean ± SEM is represented. Data are representative of n = 3 independent experiments. Statistical significance was determined using one-way ANOVA with post hoc Tukey’s test with 3 technical replicates. ns, not significant; ***, P < 0.0001.
We also performed the same experiment with a peptide encompassing the basic domain of Tat (Pep B; residues 45 to 59) and dCA.
EMSA With full-length Tat: similar protocol was performed as in Das et al. (60). […]

Tat-TAR interaction [1] = molecular target: T2, Tat-TAR interaction (Human immunodeficiency virus type 1 group M subtype B, UniProt P69697); assay: ChIP of FLAG-Tat followed by qRT-PCR of TAR in HeLa-CD4-LTR-Luc cells; assay type: cell-based, HIV-1; design: expressed in transfected cells; host or cells: HeLa-CD4-LTR-Luc; conditions: compounds 25 nM, 48 h
T2 sequence (P69697 whole entry, the tested form may be a part): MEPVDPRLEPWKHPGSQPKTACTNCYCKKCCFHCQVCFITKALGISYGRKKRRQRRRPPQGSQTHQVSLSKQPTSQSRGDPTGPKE
From the text: FIG 6 dCA binding to Tat disrupts Tat-TAR interaction. (A) EMSA of full-length Tat with TAR in the presence of dCA. Raltegravir (Ralt.) and deleted bulge TAR (ΔTAR) were used as negative controls. Data are representative of n = 3 independent experiments. (B) EMSA of Tat’s basic domain with TAR in the presence of increasing concentrations of dCA to Tat’s basic peptide. Pep B is a peptide encompassing the basic domain of HIV Tat (^45ISYGRKKRRQRRRAP^59). Pep C (^69LSKQPASQPRGDPTG^83) and unlabeled or cold TAR (TARc) were used as negative controls. Neomycin, which binds to Tat and TAR, was used as a positive control. Ratios of compounds (or TARc) concentrations to peptide are shown. Data are representative of n = 3 independent experiments. […] Shown are ITC results from binding of dCA (left) or Tat peptide (right) to TAR at 25°C. […] For the lower plots, results were converted to molar heats and plotted against the molar ratio of dCA or peptide to RNA. […] Luciferase activity was determined relative to protein concentration (Bradford assay) (Fig. S9A). […] Statistical significance was determined using one-way ANOVA with post hoc Tukey’s test with 3 technical replicates. ns, not significant; ***, P < 0.0001. […]
Chromatin immunoprecipitation assay (CHIP). […] The relative proportions of co-immunoprecipitated DNA were determined on the basis of the threshold cycle for qRT-PCR. […]

Tat-TAR interaction [2] = molecular target: T2, Tat-TAR interaction; assay: EMSA of full-length Tat with TAR; assay type: biochemical, HIV-1; design: pTatC6H-1 (NIH AIDS Reagent Program) plasmid encoding C-terminal 6xHistidine Tat1-86 (HXB3, subtype B); made in house; host or cells: E. coli BL21 (plasmid pTatC6H-1, NIH AIDS Reagent Program); conditions: radiolabeled TAR
From the text: Tat amplifies viral mRNA expression by binding through its basic domain to TAR, the 5′-terminal region stem-bulge-loop structure of HIV mRNAs, and recruits several cofactors to the viral promoter to promote transcriptional elongation. We investigated whether dCA could compete with TAR for Tat binding. For this purpose, we performed EMSA with radiolabeled TAR and recombinant Tat in the presence or absence of dCA (Fig. 6A).
EMSA with full-length Tat, a protocol similar to that of Das et al. was performed ([60]). Details on the EMSA with Tat’s basic peptide are provided in Text S1.
EMSA With full-length Tat: similar protocol was performed as in Das et al. (60). With Tat’s basic peptide: the 59-nucleotides TAR RNA was prepared by in vitro T7 RNA polymerase transcription according to Maxiscript kit manufacturer’s instructions (Ambion). The radiolabeled RNA was purified by urea gel followed by phenol-chloroform extraction. Binding reaction mixture (25 µL of 10 mM Tris HCL pH 7.5, NaCl 70 mM, EDTA 0.2 mM, NP40 0.01 %, Glycerol 5 % and tRNA 100 ng/µL) contained traces of radiolabeled TAR RNA and basic peptide (Pep B, residues 45-59) (or peptide C “Pep C”, residues 69-83, as negative control) in combination or not with compounds or cold TAR. The mixture was incubated for 10 min at room temperature (RT). […]

CN(C)C1CC23CCC4(O2)C(=CCC2(C)C(c5ccc6ccncc6c5)=CCC24)C=C3C(O)C1O (stereo not drawn) [dCA, didehydro-cortistatin A]
inhibition of Pep B-TAR interaction (EMSA) (Pep B-TAR interaction): inhibited the interaction of Pep B with TAR in a dose-dependent manner
Tat-TAR interaction in cells (ChIP) (Tat-TAR interaction [1]): reduced this Tat-TAR interaction to similar levels as FLAG-Tat Mut
inhibition of Tat-TAR interaction (EMSA) (Tat-TAR interaction [2]): inhibited the interaction of Tat with TAR in a dose-responsive manner

Cc1nnc(C(=O)NC(C)(C)c2nc(C(=O)NCc3ccc(F)cc3)c(O)c(=O)n2C)o1 [raltegravir, reference compound]
inhibition of Pep B-TAR interaction (EMSA) (Pep B-TAR interaction): did not compete
Tat-TAR interaction in cells (ChIP) (Tat-TAR interaction [1]): A Tat-TAR interaction was detected
inhibition of Tat-TAR interaction (EMSA) (Tat-TAR interaction [2]): no inhibitory activity
